# Results: patent EP0313703A1, “Use of 24,25-dihydroxycholecalciferole in the treatment of urinary calculus” (KUREHA KAGAKU KOGYO KABUSHIKI KAISHA, priority 1987, dated 1989)
# Legend:
# [1] = test system: male ICR mice; experiment: Acute oral toxicity, single dose, 2 weeks observation; type: in vivo; conditions: 150 mg/kg p.o.
# Method: (§1) After dissolving the present substance in ethanol, the thus formed solution was diluted by a triglyceride of a fatty acid of 8 to 10 carbon atoms so that the concentration of ethanol became 2 %. The thus formed solution was orally (p.o.) administered to each of 10 male ICR mice (age of 6 weeks, body weight of 25±3 g) at dose of 150 mg/kg. […] Accordingly, the acute oral LD₅₀ of the present substance is not less than […] and the present substance can be said to be extremely safe.
# [2] = as above; type: in vivo, mice; conditions: mouse, in vivo, po, male ICR mice; read-out: acute oral LD₅₀
# Method: as §1
# [3] = test system: renal calculus; experiment: Inhibition of formation of renal calculus in model rats (ethylene glycol + 1α-hydroxycholecarciferol); type: in vivo, Wistar rats; conditions: 10 µg/kg/1 ml/day p.o., four weeks
# Method: As the test animals for renal calculus, the following rats were used.
# Twenty male Wistar rats (age of 8 weeks and body weight of about 200 g) were allowed to take a water containing 0.5 % of ethylene glycol freely, and a mixture of 0.5 µg of 1α-hydroxycholecarciferol and 0.1 ml of triglyceride of a fatty acid of 8 to 10 carbon atoms was forcibly and orally administered by a stomach tube every other day for four weeks, thereafter being used as the test animals.
# 24R,25-(OH)₂-D₃ in the triglyceride of a fatty acid of 8 to 10 carbon atoms containing 2 % of ethanol was forcibly and orally administered to each of the test animals at a dose of 10µg/kg/1 ml/day by a stomach tube, and to each animals of the control group, the triglyceride of a fatty acid of 8 to 10 carbon atoms was administered in the same manner as above.
# The animals were slaughtered after four weeks from the first administration, and the kidney of the animal was extirpated therefrom after the exsanguination and immediately photographed by soft X-ray. Furhter the cross section of the extirpated kidney containing papilla was observed by naked eyes.
# [4] = test system: male or female ICR mice; experiment: 30-day repeated oral administration: body weight and histopathology; type: in vivo; conditions: 10, 100 or 1000 µg/kg daily p.o. for 30 days
# Method: After dissolving 24R,25-(OH)₂-D₃, at a prescribed concentration, into the triglyceride of a fatty acid of 8 to 10 carbon atoms containing 1 % of ethanol, the solution was forcibly and orally administered to each of the three groups of the male or female ICR mice continuously for 30 days at a daily dose of 10, 100 or 1000 µg/kg.
# The examined organs are as follows: brain, heart, lung, liver, kidney, adrenal, spleen, pancreas, thyroid, hypophysis, thymus, mesentric lymph node, testis, ovary, uterus, stomach, small intestines (jejunum, ileum and duodenum), large intestines (colon and cecum), eyeball, submandibular gland, urinary bladder, backskin, muscle, sternum, marrow of sternum, femur and marrow of femur.
compound,measurement,setting,value
"C=C1CC[C@H](O)C/C1=C/C=C1\CCC[C@]2(C)[C@@H]([C@H](C)CCC(O)C(C)(C)O)CC[C@@H]12 (some centres unmarked) [the present substance, 24,25-dihydroxycholecalciferol]",survival / toxic symptoms,"[1]; 10 male ICR mice, observed for 2 weeks",all the animals (10 mice) survived without any abnormality
same,"biochemical examination of the blood, autopsy and histopathological examination versus control animals","[1]; male ICR mice, after slaughter at 2 weeks",no difference was found
same,LD50 at 336 h,[2],≥ 100 mg/kg
"C=C1CC[C@H](O)C/C1=C/C=C1\CCC[C@]2(C)[C@@H]([C@H](C)CC[C@@H](O)C(C)(C)O)CC[C@@H]12 [24R,25-(OH)₂-D₃]","calculi in the pelvis and the papilla of the kidney, observation by naked eyes","[3]; 10 rats, control group: 8 cases among 10 rats",any clear calculus was never recognized
same,"radial deposition of crystals in the renal parenchyma, observation by naked eyes","[3]; 10 rats, remarkably found in the control group",one rat of 10 rats
same,"formation of calculus, soft X-ray photograph of the kidney",[3]; compared with control rats,clear inhibition of the formation of calculus
same,body weight change (growth curve),[4],any significant difference in the body weight change was not recognized
same,histopathological examination of organs (hematoxylin·eosin),[4],any abnormal findings were not particularly recognized
